In patent US10851073B2, “Protein tyrosine phosphatase inhibitors and methods of use thereof” (Calico Life Sciences LLC, priority 2019, dated 2020):

Key:
[1] = biological target: T1, His tagged PTPN2 (TC45) protein (Homo sapiens, UniProt P17706); assay: Mobility shift assay used to determine potency of PTPN2 inhibitors; type: biochemical; details: enzyme 0.5 nM, substrate 2 μM; read-out: PTPN2 MSA IC50
T1 construct: made in house
T1 sequence (P17706 with tags, fused parts or gaps isoform P17706-2): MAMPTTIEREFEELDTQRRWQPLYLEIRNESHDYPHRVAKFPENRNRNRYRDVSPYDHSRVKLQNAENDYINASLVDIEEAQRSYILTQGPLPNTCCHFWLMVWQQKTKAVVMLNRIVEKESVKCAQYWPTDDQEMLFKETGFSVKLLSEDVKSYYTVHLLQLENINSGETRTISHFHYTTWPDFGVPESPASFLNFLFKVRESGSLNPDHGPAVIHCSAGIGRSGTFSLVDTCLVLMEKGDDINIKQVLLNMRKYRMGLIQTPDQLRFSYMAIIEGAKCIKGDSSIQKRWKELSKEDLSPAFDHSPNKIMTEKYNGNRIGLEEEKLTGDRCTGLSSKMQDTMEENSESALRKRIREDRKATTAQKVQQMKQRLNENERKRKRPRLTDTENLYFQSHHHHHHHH
Procedure: Example 227: Mobility Shift Assay Used to Determine Potency of PTPN2 Inhibitors
Compound activity was determined using in house His tagged PTPN2 (TC45) protein (SEQ ID NO: 1) in an in vitro enzymatic reaction. The enzymatic assay used to determine activity was a mobility shift assay using a LabChip EZ Reader by Caliper Life Sciences. The enzymatic reaction was carried out in assay buffer (50 mM HEPES pH 7.5, 1 mM EGTA, 10 mM EDTA, 0.01% Tween® 20, and 2 mM DTT). The compounds were dispensed on a white 384 well ProxiPlate™ (PerkinElmer Catalog #6008289) plate using the Labcyte Echo at varying concentrations (12 point, 1:3 dilution). The enzyme (at 0.5 nM) was incubated with compound for 10 minutes at room temperature. Then the substrate (phosphorylated insulin receptor probe sequence: ((OG488)-(NH—CH2—CH2—O—CH2—CH2—O—CH2—CO)-T-R-D-I-(PY)-E-T-D-Y-Y-R-K-K-NH2) (SEQ ID NO: 2) was added at 2 μM to the plates and incubated for another 10 minutes at room temperature. Finally, a quench solution (water and 4-bromo-3-(2-oxo-2-propoxyethoxy)-5-(3-{[1-(phenylmethanesulfonyl)piperidin-4-yl]amino}phenyl)thiophene-2-carboxylic acid) was added to the plates, which were then run on the EZ Reader (excitation 488 nm, emission 530 nm) to measure % conversion (the amount of phosphorylated substrate which was de-phosphorylated by PTPN2). […] The % inhibition was then used to calculate the IC50 values.

[2] = biological target: T2, His tagged full-length PTPN1 protein (Homo sapiens, UniProt P18031); assay: Mobility shift assay (MSA) used to determine potency of PTPN1 inhibitors; type: biochemical; details: enzyme 0.5 nM, substrate 2 μM
T2 construct: made in house
T2 sequence (P18031 with tags, fused parts or gaps): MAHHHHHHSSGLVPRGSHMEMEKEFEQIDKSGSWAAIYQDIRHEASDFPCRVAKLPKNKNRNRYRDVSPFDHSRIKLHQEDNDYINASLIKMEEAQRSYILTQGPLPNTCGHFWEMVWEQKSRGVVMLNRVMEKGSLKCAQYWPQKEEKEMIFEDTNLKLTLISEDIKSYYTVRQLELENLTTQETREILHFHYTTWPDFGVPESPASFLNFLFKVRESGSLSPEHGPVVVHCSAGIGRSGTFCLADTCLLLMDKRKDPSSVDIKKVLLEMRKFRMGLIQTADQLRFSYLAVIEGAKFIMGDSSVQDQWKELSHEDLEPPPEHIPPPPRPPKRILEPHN
Procedure: Example 228: Mobility Shift Assay (MSA) Used to Determine Potency of PTPN1 Inhibitors
Compound activity was determined using in house His tagged full-length PTPN1 protein (SEQ ID NO: 3) in an in vitro enzymatic reaction. The enzymatic assay used to determine activity is a mobility shift assay using a LabChip EZ Reader by Caliper Life Sciences. The enzymatic reaction was carried out in assay buffer (50 mM HEPES pH 7.5, 1 mM EGTA, 10 mM EDTA, 0.01% Tween® 20, and 2 mM DTT). The compounds were dispensed on a white 384 well ProxiPlate™ (PerkinElmer Cat^# 6008289) plate using a Labcyte Echo® liquid handler at varying concentrations (12 point, 1:3 dilution). The enzyme (at 0.5 nM) was incubated with compound for 10 minutes at room temperature. Then the substrate (phosphorylated insulin receptor probe sequence: ((OG488)-(NH—CH2—CH2—O—CH2—CH2—O—CH2—CO)-T-R-D-I-(PY)-E-T-D-Y-Y-R-K-K-NH2) (SEQ ID NO: 2) was added at 2 μM to the plates and incubated for another 10 minutes at room temperature. Finally, a quench solution (water and 4-bromo-3-(2-oxo-2-propoxyethoxy)-5-(3-{[1-(phenylmethanesulfonyl)piperidin-4-yl]amino}phenyl)thiophene-2-carboxylic acid) was added to the plates, which were then run on the EZ Reader (excitation 488 nm, emission 530 nm) to measure % conversion (the amount of phosphorylated substrate which was de-phosphorylated by PTPN1). […] The % inhibition was then used to calculate the IC50 values.

Row | IC50 [2] [nM] | SMILES | IC50 [1] [nM]
1 | 1 to 10 | O=C1CN(c2c(O)cc3c(c2F)CN(CCC24CCC(CC2)C4)CC3)S(=O)(=O)N1 [Compound 239, 5-{2-[2-(bicyclo[2.2.1]heptan-1-yl)ethyl]-8-fluoro-6-hydroxy-1,2,3,4-tetrahydroisoquinolin-7-yl}-1λ^6,2,5-thiadiazolidine-1,1,3-trione] | 1 to 10
2 | 10 to 100 | CC(C)CCN(CCc1ccccn1)C1CCc2cc(O)c(N3CC(=O)NS3(=O)=O)c(F)c2C1 (stereo not drawn) [Compound 167, 5-(1-fluoro-3-hydroxy-7-{(3-methylbutyl)[2-(pyridin-2-yl)ethyl]amino}-5,6,7,8-tetrahydronaphthalen-2-yl)-1λ^6,2,5-thiadiazolidine-1,1,3-trione] | 1 to 10
3 | 10 to 100 | O=C1CN(c2c(O)cc3c(c2F)C[C@@H](NCCCC(F)(F)F)CC3)S(=O)(=O)N1 (single isomer, unassigned) [Compound 147] | 10 to 100
4 | 10 to 100 | O=C1CN(c2c(O)cc3c(c2F)CCC(NCC2CC2)C3)S(=O)(=O)N1 (stereo not drawn) [Compound 318, 5-{6-[(cyclopropylmethyl)amino]-1-fluoro-3-hydroxy-5,6,7,8-tetrahydronaphthalen-2-yl}-1λ^6,2,5-thiadiazolidine-1,1,3-trione] | 1 to 10
5 | 10 to 100 | O=C1CN(c2c(O)cc3c(c2F)CC(CNCCC2CCC2)C3)S(=O)(=O)N1 (stereo not drawn) [Compound 305, 5-(2-{[(2-cyclobutylethyl)amino]methyl}-4-fluoro-6-hydroxy-2,3-dihydro-1H-inden-5-yl)-1λ^6,2,5-thiadiazolidine-1,1,3-trione] | 10 to 100
6 | 10 to 100 | CC(C)OCCNC1CCc2cc(O)c(N3CC(=O)NS3(=O)=O)c(F)c2C1 (stereo not drawn) [Compound 186, 5-[1-fluoro-3-hydroxy-7-({2-[(propan-2-yl)oxy]ethyl}amino)-5,6,7,8-tetrahydronaphthalen-2-yl]-1λ^6,2,5-thiadiazolidine-1,1,3-trione] | 10 to 100
7 | 10 to 100 | CC(C)CCN(Cc1ccccn1)C1CCc2cc(O)c(N3CC(=O)NS3(=O)=O)c(F)c2C1 (stereo not drawn) [Compound 154, 5-(1-fluoro-3-hydroxy-7-{(3-methylbutyl)[(pyridin-2-yl)methyl]amino}-5,6,7,8-tetrahydronaphthalen-2-yl)-1λ^6,2,5-thiadiazolidine-1,1,3-trione] | 1 to 10
8 | > 100 | Cc1noc(C)c1CNC1CCc2cc(O)c(N3CC(=O)NS3(=O)=O)c(F)c2C1 (stereo not drawn) [Compound 287, 5-(7-{[(3,5-dimethyl-1,2-oxazol-4-yl)methyl]amino}-1-fluoro-3-hydroxy-5,6,7,8-tetrahydronaphthalen-2-yl)-1λ^6,2,5-thiadiazolidine-1,1,3-trione] | 10 to 100
9 | 10 to 100 | CC(F)(F)CNC1CCc2cc(O)c(N3CC(=O)NS3(=O)=O)c(F)c2C1 (stereo not drawn) [Compound 132, 5-{7-[(2,2-difluoropropyl)amino]-1-fluoro-3-hydroxy-5,6,7,8-tetrahydronaphthalen-2-yl}-1λ^6,2,5-thiadiazolidine-1,1,3-trione] | 10 to 100
10 | 10 to 100 | CC(C)(O)CCNC1CCc2c(cc(O)c(N3CC(=O)NS3(=O)=O)c2F)C1 (stereo not drawn) [Compound 315, 5-{1-fluoro-3-hydroxy-6-[(3-hydroxy-3-methylbutyl)amino]-5,6,7,8-tetrahydronaphthalen-2-yl}-1λ^6,2,5-thiadiazolidine-1,1,3-trione] | 1 to 10
11 | 10 to 100 | O=C1CN(c2c(O)cc3c(c2F)CC(NCCN2CCC2)CC3)S(=O)(=O)N1 (stereo not drawn) [Compound 115, 5-(7-{[2-(azetidin-1-yl)ethyl]amino}-1-fluoro-3-hydroxy-5,6,7,8-tetrahydronaphthalen-2-yl)-1λ^6,2,5-thiadiazolidine-1,1,3-trione] | 10 to 100

Row | SMILES | IC50 [2] [nM] | IC50 [1] [nM]
12 | CC(C)CCOC1CCc2cc(O)c(N3CC(=O)NS3(=O)=O)c(F)c2C1 (stereo not drawn) [Compound 100, 5-[1-fluoro-3-hydroxy-7-(3-methylbutoxy)-5,6,7,8-tetrahydronaphthalen-2-yl]-1λ^6,2,5-thiadiazolidine-1,1,3-trione] | 1 to 10 | 10 to 100
